Laboratory results: US20250313563A1, “GLYCOGEN SYNTHASE KINASE 3 INHIBITORS AND USES THEREOF” (The Broad Institute, Inc., priority 2022, published 2025)
pIC50: −log10 of the molar value. Read-outs that look alike come from different tables or passages of the source.

Tests used:
[1] = molecular target: GSK3b (GST-full length GSK3b) (Homo sapiens (Human), UniProt P49841); experiment: GSK3b TR-FRET kinase assay; assay type: biochemical
How it was run: (§1)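 Compound was preincubated 30 min with 1 nM GST-GSK3 enzyme. Reaction ran 100 min at ambient temperature in Tris pH 7.5/MgCl2 with 200 nM biotinylated pS645-glycogen synthase 631-650 peptide and ATP (4 μM GSK3α, 2 μM GSK3b, or 1 mM). The EDTA-stopped reaction was read by TR-FRET (Tb-anti-pSer641/streptavidin-d2), and IC50s were fitted.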

[2] = molecular target: GSK3α (GST-full length GSK3α) (Homo sapiens (Human), UniProt P49840); experiment: GSK3α TR-FRET kinase assay; assay type: biochemical
Sequence of GSK3α (GST-full length GSK3α) (P49840 whole entry): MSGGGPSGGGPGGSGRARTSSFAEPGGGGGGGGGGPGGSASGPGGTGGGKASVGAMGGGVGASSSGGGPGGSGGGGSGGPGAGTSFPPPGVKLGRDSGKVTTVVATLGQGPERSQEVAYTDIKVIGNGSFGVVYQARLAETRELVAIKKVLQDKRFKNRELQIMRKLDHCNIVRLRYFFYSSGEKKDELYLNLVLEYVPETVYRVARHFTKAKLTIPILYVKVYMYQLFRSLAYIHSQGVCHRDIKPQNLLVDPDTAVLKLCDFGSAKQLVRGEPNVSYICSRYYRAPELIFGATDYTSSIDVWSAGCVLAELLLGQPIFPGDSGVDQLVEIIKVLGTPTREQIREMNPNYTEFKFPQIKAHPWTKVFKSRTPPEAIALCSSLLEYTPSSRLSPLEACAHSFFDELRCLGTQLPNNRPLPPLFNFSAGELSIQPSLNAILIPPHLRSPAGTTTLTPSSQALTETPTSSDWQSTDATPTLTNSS
How it was run: as §1

[3] = 1 nM GSK3b, 2 μM ATP, 30 minute preincubation, geometric mean, read-out: GSK3-B TR-FRET BIOCHEMICAL (TR-FRET), GMean, IC50
[4] = 1 nM GSK3α, 4 μM ATP, 30 minute preincubation, geometric mean, read-out: GSK3-A TR-FRET BIOCHEMICAL (TR-FRET), GMean, IC50
[5] = 1 nM GSK3b, 2 μM ATP, 30 minute preincubation, Table 16, read-out: GSK3-B TR-FRET BIOCHEMICAL (TR-FRET), IC50
[6] = 1 nM GSK3α, 4 μM ATP, 30 minute preincubation, Table 16, read-out: GSK3-A TR-FRET BIOCHEMICAL (TR-FRET), IC50
[7] = read-out: GSK3-B (TR-FRET 1 mM ATP), GMean, IC50, 1 mM ATP, geometric mean
[8] = read-out: GSK3-A (TR-FRET 1 mM ATP), GMean, IC50, 1 mM ATP, geometric mean
[9] = 1 nM GSK3b, 2 μM ATP, 30 minute preincubation, read-out: GSK3-B TR-FRET BIOCHEMICAL (TR-FRET), IC50
[10] = 1 nM GSK3α, 4 μM ATP, 30 minute preincubation, read-out: GSK3-A TR-FRET BIOCHEMICAL (TR-FRET), IC50
[11] = 1 nM GSK3b, 2 μM ATP, 30 minute preincubation, Table 16, read-out: GSK3-B TR-FRET BIOCHEMICAL (TR-FRET)
[12] = 1 nM GSK3α, 4 μM ATP, 30 minute preincubation, Table 16, read-out: GSK3-A TR-FRET BIOCHEMICAL (TR-FRET)

Sequence of GSK3b (GST-full length GSK3b) (P49841 whole entry): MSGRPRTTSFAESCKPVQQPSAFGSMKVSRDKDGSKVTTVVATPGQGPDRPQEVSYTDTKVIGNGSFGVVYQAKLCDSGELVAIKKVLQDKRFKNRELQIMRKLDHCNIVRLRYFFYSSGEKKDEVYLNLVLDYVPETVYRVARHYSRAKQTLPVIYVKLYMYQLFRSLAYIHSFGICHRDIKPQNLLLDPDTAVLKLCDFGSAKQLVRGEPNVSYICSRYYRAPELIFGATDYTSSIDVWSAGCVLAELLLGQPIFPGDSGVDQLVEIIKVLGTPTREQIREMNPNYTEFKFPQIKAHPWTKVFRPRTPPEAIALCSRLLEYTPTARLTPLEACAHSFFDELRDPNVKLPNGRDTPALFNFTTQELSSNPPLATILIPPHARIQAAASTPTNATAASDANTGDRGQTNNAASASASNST

Row | Compound | pIC50 [1, 3] | pIC50 [2, 4] | other results
1 | CC[C@]1(c2ccccc2)C2=C(C[C@@](C)(COC)CC2=O)Nc2n[nH]cc21 [Compound 816873] | 5.30 to 6.00 | 6.00 to 7.00 | –
2 | CC[C@@]1(c2ccccc2)C2=C(C[C@](C)(COC)CC2=O)Nc2n[nH]cc21 [Compound 816874] | < 5.30 | < 5.30 | –
3 | CC[C@@]1(c2ccccc2)C2=C(C[C@@](C)(COC)CC2=O)Nc2n[nH]cc21 [Compound 816875] | 5.30 to 6.00 | 6.00 to 7.00 | –
4 | CC[C@]1(c2ccccc2)C2=C(C[C@@]3(CCCOC3)CC2=O)Nc2n[nH]cc21 [Compound 816876] | < 5.30 | < 5.30 | –
5 | CC[C@]1(c2ccccc2)C2=C(C[C@]3(CCCOC3)CC2=O)Nc2n[nH]cc21 [Compound 816877] | < 5.30 | < 5.30 | –
6 | CC[C@@]1(c2ccccc2)C2=C(C[C@@]3(CCCOC3)CC2=O)Nc2n[nH]cc21 [Compound 816878] | 5.30 to 6.00 | 6.00 to 7.00 | –
7 | CC[C@@]1(c2ccccc2)C2=C(C[C@]3(CCCOC3)CC2=O)Nc2n[nH]cc21 [Compound 816879] | 6.00 to 7.00 | 6.00 to 7.00 | –
8 | CC[C@]1(c2ccccc2)C2=C(C[C@]3(CCOC3)CC2=O)Nc2n[nH]cc21 [Compound 816880] | < 5.30 | < 5.30 | –
9 | CC[C@]1(c2ccccc2)C2=C(C[C@@]3(CCOC3)CC2=O)Nc2n[nH]cc21 [Compound 816881] | 5.30 to 6.00 | 6.00 to 7.00 | –
10 | CC[C@@]1(c2ccccc2)C2=C(C[C@]3(CCOC3)CC2=O)Nc2n[nH]cc21 [Compound 816882] | < 5.30 | < 5.30 | –
11 | CC[C@@]1(c2ccccc2)C2=C(C[C@@]3(CCOC3)CC2=O)Nc2n[nH]cc21 [Compound 816884] | 5.30 to 6.00 | 6.00 to 7.00 | –
12 | CCC1(c2cccc(N3CCOCC3)c2)C2=C(CC(C)(C)CC2=O)Nc2n[nH]c(C(F)(F)F)c21 (centres unmarked) [Compound 816886] | 5.30 to 6.00 | 5.30 to 6.00 | –
13 | CCC1(c2cccc(CN3CCCCC3)c2)C2=C(CC(C)(C)CC2=O)Nc2n[nH]cc21 (centres unmarked) [Compound 819560] | < 5.30 | 5.30 to 6.00 | –
14 | CCC1(c2cccc(S(C)(=O)=O)c2)C2=C(CC(C)(C)CC2=O)Nc2n[nH]cc21 (centres unmarked) [Compound 819561] | ≥ 7.00 | ≥ 7.00 | –
15 | CC1(C)CC(=O)C2=C(C1)Nc1n[nH]cc1C2(C)CCc1ccccc1 (centres unmarked) [Compound 819562] | – | – | pIC50 [1, 5]: < 5.30; pIC50 [2, 6]: 5.30 to 6.00
16 | CCC1(CCc2ccccc2)C2=C(CC(C)(C)CC2=O)Nc2n[nH]cc21 (centres unmarked) [Compound 819563] | – | – | pIC50 [1, 5]: < 5.30; pIC50 [2, 6]: 5.30 to 6.00
17 | CCC1(c2cccc(C(F)F)c2)C2=C(CC(C)(C)CC2=O)Nc2n[nH]cc21 (centres unmarked) [Compound 819564] | ≥ 7.00 | ≥ 7.00 | –
18 | CCC1(c2cccc(Br)c2)C2=C(CC(C(F)(F)F)CC2=O)Nc2n[nH]cc21 (centres unmarked) [Compound 819565] | 6.00 to 7.00 | 6.00 to 7.00 | –
19 | CC[C@@]1(c2ccccc2)C2=C(C[C@](C)(C(F)(F)F)CC2=O)Nc2n[nH]cc21 [Compound 819568] | 6.00 to 7.00 | 6.00 to 7.00 | –
20 | CC[C@]1(c2ccccc2)C2=C(C[C@](C)(C(F)(F)F)CC2=O)Nc2n[nH]cc21 [Compound 819569] | 5.30 to 6.00 | 6.00 to 7.00 | –
21 | CC[C@]1(c2ccccc2)C2=C(C[C@@](C)(C(F)(F)F)CC2=O)Nc2n[nH]cc21 [Compound 819570] | < 5.30 | < 5.30 | –
22 | CC[C@@]1(c2ccccc2)C2=C(C[C@@](C)(C(F)(F)F)CC2=O)Nc2n[nH]cc21 [Compound 819571] | < 5.30 | < 5.30 | –

Row | Compound | pIC50 [1, 3] | pIC50 [2, 4] | other results
23 | CC[C@]1(c2ccccc2)C2=C(CC3(CCC3)CC2=O)Nc2n[nH]cc21 [Compound 819572] | < 5.30 | < 5.30 | –
24 | CC[C@@]1(c2ccccc2)C2=C(CC3(CCC3)CC2=O)Nc2n[nH]cc21 [Compound 819573] | 6.00 to 7.00 | ≥ 7.00 | –
25 | CC[C@]1(c2cccc(N3CCCC3)c2)C2=C(CC(C)(C)CC2=O)Nc2n[nH]c(C(F)(F)F)c21 [Compound 819574] | ≥ 7.00 | ≥ 7.00 | pIC50 [1, 7]: ≥ 7.00; pIC50 [2, 8]: ≥ 7.00
26 | CCC1(c2cccc(N3CCCC3)c2)C2=C(CC(C)(C)CC2=O)Nc2n[nH]c(C(F)(F)F)c21 (centres unmarked) [Compound 819575] | ≥ 7.00 | 6.00 to 7.00 | pIC50 [1, 7]: ≥ 7.00; pIC50 [2, 8]: ≥ 7.00
27 | CCC1(c2cccc(-c3cnn(C)c3)c2)C2=C(CC(C)(C)CC2=O)Nc2n[nH]cc21 (centres unmarked) [Compound 819576] | 5.30 to 6.00 | 6.00 to 7.00 | –
28 | CCC1(c2cccc(-c3cnn(C)c3)c2)C2=C(CC(C)(C)CC2=O)Nc2n[nH]cc21 (centres unmarked) [Compound 819577] | 6.00 to 7.00 | ≥ 7.00 | pIC50 [1, 7]: < 5.30; pIC50 [2, 8]: 6.00 to 7.00
29 | CCC1(c2cccc(C3CCOCC3)c2)C2=C(CC(C)(C)CC2=O)Nc2n[nH]cc21 (centres unmarked) [Compound 819638] | 6.00 to 7.00 | ≥ 7.00 | pIC50 [1, 7]: < 5.30; pIC50 [2, 8]: 6.00 to 7.00
30 | CCC1(c2cccc(C(F)(F)F)c2)C2=C(CC(C)(C)N(C)C2=O)Nc2n[nH]cc21 (centres unmarked) [Compound 823130] | – | – | pIC50 [1, 9]: 6.00 to 7.00; pIC50 [2, 10]: ≥ 7.00
31 | CCC1(c2cccc(-c3cnn(C)c3)c2)C2=C(CC(C)CC2=O)Nc2n[nH]cc21 (centres unmarked) [Compound 823720] | 6.00 to 7.00 | ≥ 7.00 | –
32 | CCC1(c2cccc(-c3cnn(C)c3)c2)C2=C(CC(C)CC2=O)Nc2n[nH]cc21 (centres unmarked) [Compound 823721] | 6.00 to 7.00 | ≥ 7.00 | pIC50 [1, 7]: < 5.30; pIC50 [2, 8]: 6.00 to 7.00
33 | CCC1(c2cccc(-c3cnn(C)c3)c2)C2=C(CC(C)CC2=O)Nc2n[nH]cc21 (centres unmarked) [Compound 823726] | < 5.30 | < 5.30 | –
34 | CCC1(c2cccc(C(F)(F)F)c2)C2=C(CCN(C(C)C)C2=O)Nc2n[nH]cc21 (centres unmarked) [Compound 825755] | – | – | pIC50 [1, 9]: 6.00 to 7.00; pIC50 [2, 10]: ≥ 7.00
35 | CC1(C)CC(=O)C2=C(C1)Nc1n[nH]cc1C21CCOCC1 [Compound 826648, 7′,7′-dimethyl-2,2′,3,5,6,7′,8′,9′-octahydrospiro[pyran-4,4′-pyrazolo[3,4-b]quinolin]-5′ (6′H)-one] | – | – | pIC50 [1, 11]: 6.00 to 7.00; pIC50 [2, 12]: 6.00 to 7.00
36 | CC(=O)N1CCC2(CC1)C1=C(CC(C)(C)CC1=O)Nc1n[nH]cc12 [Compound 826649] | – | – | pIC50 [1, 11]: 5.30 to 6.00; pIC50 [2, 12]: 6.00 to 7.00
37 | CC1(C)CC(=O)C2=C(C1)Nc1n[nH]cc1C21CCCCC1 [Compound 826650] | – | – | pIC50 [1, 11]: ≥ 7.00; pIC50 [2, 12]: ≥ 7.00
38 | CC1(C)CC(=O)C2=C(C1)Nc1n[nH]cc1C21CCOC1 (centres unmarked) [Compound 826713] | – | – | pIC50 [1, 11]: 6.00 to 7.00; pIC50 [2, 12]: 6.00 to 7.00
39 | CN1CCC2(CC1)C1=C(CC(C)(C)CC1=O)Nc1n[nH]cc12 [Compound 826714] | – | – | pIC50 [1, 5]: < 5.30; pIC50 [2, 6]: < 5.30
40 | CCC1(c2cccc(Br)c2)C2=C(CC(C)CC2=O)Nc2n[nH]c(C(F)(F)F)c21 (centres unmarked) [Compound 826715] | ≥ 7.00 | ≥ 7.00 | –
41 | CCC1(c2cccc(C(F)F)c2)C2=C(CC(C)(C)CC2=O)Nc2n[nH]cc21 (centres unmarked) [Compound 826716] | < 5.30 | 6.00 to 7.00 | –
42 | CC[C@@]1(c2cccc(C(F)F)c2)C2=C(CC(C)(C)CC2=O)Nc2n[nH]cc21 [Compound 826717] | ≥ 7.00 | ≥ 7.00 | pIC50 [1, 7]: 5.30 to 6.00; pIC50 [2, 8]: 6.00 to 7.00
43 | CCC1(c2cccc(S(C)(=O)=O)c2)C2=C(CC(C)(C)CC2=O)Nc2n[nH]cc21 (centres unmarked) [Compound 826718] | – | – | pIC50 [1, 7]: 6.00 to 7.00; pIC50 [2, 8]: ≥ 7.00
